From patent publication US10899754B2, “Modulators of indoleamine 2,3-dioxygenase” (GLAXOSMITHKLINE INTELLECTUAL PROPERTY DEVELOPMENT LIMITED, priority 2016, dated 2021)

How the values were obtained:
Assay type in all cases: cell-based
[1] = test system: human epithelial HeLa cells; experiment: HeLa cytotoxicity assay (CellTiter-Glo); conditions: pCC50
Procedure, shortened: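 Read-out is CellTiter-Glo luminescence after 2 days at 37 °C, on IFN-γ-stimulated (10 nM) HeLa cells seeded at 5,000/well with compounds in 11-point 3-fold dose series. pCC50 from four-parameter curve fit; wells without cells set 100% cytotoxicity, stimulated cells with DMSO set 0%.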

[2] = test system: human peripheral blood mononuclear cells (PBMC); experiment: PBMC cytotoxicity assay (CellTiter-Glo); conditions: 2 days, pCC50
Procedure, shortened: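 % cytotoxicity was taken from CellTiter-Glo luminescence, using wells without cells and stimulated DMSO wells as references, and fitted by four-parameter curve to give XC50. Cells were human PBMC at 50,000 per well, activated with 100 ng/ml IFN-γ plus 50 ng/ml LPS. Incubation with 11-point, 3-fold dilution series ran for 2 days at 37 °C.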

[3] = biological target: T1, indoleamine 2, 3-dioxygenase (IDO1) (Homo sapiens, UniProt P14902); experiment: IDO1 HeLa RapidFire MS assay (kynurenine detection by mass spectrometry); set-up: to induce the expression of indoleamine 2, 3-dioxygenase (IDO1); conditions: HeLa cells, pIC50, read-out: IDO1_HELA_PXC50 (converted)
T1 sequence (P14902 whole entry): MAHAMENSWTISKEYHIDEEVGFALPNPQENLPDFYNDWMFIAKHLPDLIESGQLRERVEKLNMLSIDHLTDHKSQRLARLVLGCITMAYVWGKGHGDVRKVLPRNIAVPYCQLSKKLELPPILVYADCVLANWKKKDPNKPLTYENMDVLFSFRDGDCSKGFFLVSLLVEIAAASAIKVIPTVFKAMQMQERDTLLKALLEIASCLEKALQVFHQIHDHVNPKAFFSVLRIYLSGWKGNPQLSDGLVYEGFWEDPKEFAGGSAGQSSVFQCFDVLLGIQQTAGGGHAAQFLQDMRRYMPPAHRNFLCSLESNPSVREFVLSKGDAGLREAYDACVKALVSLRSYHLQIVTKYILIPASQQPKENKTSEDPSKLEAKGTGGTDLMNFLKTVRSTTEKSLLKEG
Procedure, shortened: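 Compound potency reported as pIC50 from kynurenine/internal-standard ratio (RapidFire MS) in supernatant of IFN-γ-induced (10 nM) HeLa cells, 5,000 per well, after 2 days' treatment with 11-point dilutions. Cytotoxicity in the same format by luminescent ATP detection, reported as pCC50.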

[4] = biological target: T1, indoleamine 2, 3-dioxygenase (IDO1); experiment: IDO1 PBMC RapidFire MS assay (kynurenine detection by mass spectrometry); set-up: to induce the expression of indoleamine 2, 3-dioxygenase (IDO1); host or cells: human PBMC stimulated with IFN-gamma and LPS; conditions: human PBMC stimulated with IFN-γ and LPS, 2 days, pIC50, read-out: PBMC PXC50 (converted)
Procedure, shortened: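 Kynurenine output, read by RapidFire mass spectrometry as ratio to an internal standard, was measured after 2-day compound exposure (11-point, 3-fold dilutions) of human PBMCs induced with 100 ng/ml IFN-γ and 50 ng/ml LPS. Cell viability tracked alongside via ATP luminescence; XC50 from curve fitting.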

Row | Compound | HELA_IDO1_TOX_PXC50 [1] | PBMC TOX PXC50 [2] | IC50 [3] [nM] | IC50 [4] [nM]
1 | CC(C)CN(c1ccc([C@H](C)CC(=O)O)cc1Nc1ccc(Cl)nc1)[C@H]1CC[C@@H](O)CC1 [Example 58, (R)-3-(3-((6-chloropyridin-3-yl)amino)-4-(((1s,4S)-4-hydroxycyclohexyl) (isobutyl)amino)phenyl)butanoic Acid] | <5 | <5 | 10 | 7.94
2 | COCCc1nnc(Nc2cc([C@H](C)CC(=O)O)ccc2N(CC(C)C)C2CCCCC2)[nH]1 [example 214, (3R)-3-{4-[cyclohexyl(2-methylpropyl)amino]-3-{[5-(2-methoxyethyl)-4H-1,2,4-triazol-3-yl]amino}phenyl}butanoic acid] | <5 | <5 | 12.6 | 12.6
3 | CC(C)CN(c1ccc(C(C)CC(=O)O)cc1NCc1ccc(F)c(F)c1)C1CCCCC1 (stereo not shown) [example 162, 3-{4-[cyclohexyl(2-methylpropyl)amino]-3-{[(3,4-difluorophenyl)methyl]amino}phenyl}butanoic acid] | <5 | <5 | 1000 | 398
4 | CC(C)CN(c1ccc([C@H](C)CC(=O)O)cc1Nc1nnc(C(N)=O)s1)C1CCCCC1 [Example 81, (R)-3-(3-((5-Carbamoyl-1,3,4-thiadiazol-2-yl)amino)-4-(cyclohexyl(isobutyl)amino)phenyl)butanoic] | <5 | <5 | 7.94 | 3.98
5 | CC(C)CN(c1ccc([C@H](C)CC(=O)O)cc1Nc1nnc(C(C)C)[nH]1)C1CCOCC1 [example 212, (3R)-3-{4-[(2-methylpropyl)(oxan-4-yl)amino]-3-{[5-(propan-2-yl)-4H-1,2,4-triazol-3-yl]amino}phenyl}butanoic acid] | <5 | <5 | 200 | 63.1
6 | CC(C)CN(c1ccc(-c2cccnc2C(=O)O)cc1Nc1nc(C(F)(F)F)ns1)C1CCCCC1 [Example 88, 3-(4-(cyclohexyl(isobutyl)amino)-3-((3-(trifluoromethyl)-1,2,4-thiadiazol-5-yl)amino)phenyl)picolinic Acid] | <5 | <5 | 5.01 | 3.98
7 | CC(C)CN(c1ccc(-c2ccccc2C(=O)O)cc1Nc1cccc(Cl)n1)C1CCCCC1 [example 266, 3′-[(6-chloropyridin-2-yl)amino]-4′-[cyclohexyl(2-methylpropyl)amino]-[1,1′-biphenyl]-2-carboxylic acid] | <5 | <5 | 200 | 63.1
8 | Cc1nc(C)c(Nc2cc(C(C)CC(=O)O)ccc2N(CC(C)C)CC(C)C)s1 (stereo not shown) [example 139, 3-{4-[bis(2-methylpropyl)amino]-3-[(2,4-dimethyl-1,3-thiazol-5-yl)amino]phenyl}butanoic acid] | <5 | <5 | > 10000 | > 10000
9 | CC(C)CN(c1ccc(C(C)CC(=O)O)cc1NCc1ccccn1)C1CCCCC1 (stereo not shown) [example 161, 3-{4-[cyclohexyl(2-methylpropyl)amino]-3-{[(pyridin-2-yl)methyl]amino}phenyl} butanoic acid] | <5 | <5 | 2510 | 2000
10 | CC(C)CN(c1ccc([C@H](C)CC(=O)O)cc1Nc1nnc(C2CC2)[nH]1)C1CCOCC1 [example 210, (3R)-3-{3-[(5-cyclopropyl-4H-1,2,4-triazol-3-yl)amino]-4-[(2-methylpropyl)(oxan-4-yl)amino]phenyl}butanoic acid] | <5 | <5 | 50.1 | 39.8
11 | CO[C@H]1CC[C@@H](N(CC(C)C)c2ccc(-c3ccccc3C(=O)O)cc2Nc2nc(C(F)(F)F)ns2)CC1 [example 276, 4′-[(2-methylpropyl)[(1s,4s)-4-methoxycyclohexyl]ami-no]-3′-{[3-(trifluoromethyl)-1,2,4-thiadiazol-5-yl]amino}-[1,1′-biphenyl]-2-carboxylic acid] | <5 | <5 | 3.98 | > 10000
12 | CC[C@H](CC(=O)O)c1ccc(N(CC(C)C)CC(C)C)c(Nc2nc(Cl)ns2)c1 [Example 40, (R)-3-(3-((3-chloro-1,2,4-thiadiazol-5-yl)amino)-4-(diisobutylmino)phenyl)pentanoic Acid] | <5 | <5 | 12.6 | 2.51
13 | CC[C@H](CC(=O)O)c1ccc(N(CC(C)C)C2CCCCC2)c(Nc2nc(Cl)ns2)c1 [Example 42] | <5 | <5 | 5.01 | 0.501
14 | CC(C)CN(c1ccc(C(C)OCC(=O)O)cc1Nc1nc2ccccc2o1)C1CCCCC1 (stereo not shown) [example 170, 2-(1-{3-[(1,3-benzoxazol-2-yl)amino]-4-[cyclohexyl(2-methylpropyl)amino]phenyl}ethoxy)acetic acid] | <5 | <5 | 501 | 316
15 | CC(C)CN(CC(C)C)c1ccc(-c2ccccc2C(=O)O)cc1Nc1nc(C(F)(F)F)ns1 [Example 90, 4′-(diisobutylamino)-3′-((3-(trifluoromethyl)-1,2,4-thiadiazol-5-yl)amino)-[1,1′-biphenyl]-2-carboxylic Acid] | <5 | <5 | 25.1 | 10
16 | CC(C)CN(c1ccc(C(C)CC(=O)O)cc1NC1=NC(=O)[C@H](C)N1)C1CCCCC1 (stereo partly drawn) [example 164, 3-{4-[cyclohexyl(2-methylpropyl)amino]-3-{[(5S)-5-methyl-4-oxo-4,5-dihydro-1H-imidazol-2-yl]amino}phenyl}butanoic acid] | <5 | <5 | 631 | 316
17 | CC(C)CN(c1ccc([C@H](C)CC(=O)O)cc1NC1CCCC(C)(C)C1)C1CCCCC1 (stereo partly drawn) [example 183, (3R)-3-{4-[cyclohexyl(2-methylpropyl)amino]-3-[(3,3-dimethylcyclohexyl)ami-no]phenyl}butanoic acid] | <5 | <5 | 398 | 200
18 | CC(C)CN(c1ccc([C@H](C)CC(=O)O)cc1Nc1cnc(Cl)cn1)[C@H]1CC[C@H](O)CC1 [Example 45, (R)-3-(3-((5-chloropyrazin-2-yl)amino)-4-(((1r,4R)-4-hydroxycyclohexyl) (isobutyl)amino)phenyl)butanoic Acid] | <5 | <5 | 3.98 | 1.26
19 | CC(C)CN(c1ccc(C(C)CC(=O)O)cc1NCc1ncccn1)C1CCCCC1 (stereo not shown) [example 160, 3-{4-[cyclohexyl(2-methylpropyl)amino]-3-{[(pyrimidin-2-yl)methyl]amino}phenyl} butanoic acid] | <5 | <5 | > 10000 | > 10000
